#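 Compound exposure: 48 hours, 5 concentrations, 96-well plates. GI50 = concentration required for 50% inhibition of growth.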 Activity calls are given as the source filed them. Rule as the data show it: active = GI50 up to about 1.1 µM and inactive = higher.
# Tests used:
# Experiment in all cases: growth of human tumour cells (NCI), 48 h
# UACC-62 = system: UACC-62
# UO-31 = system: UO-31
# K562 = system: K562
# CCRF-CEM = system: CCRF-CEM
# HL-60 = system: HL-60
# T47D = system: T47D
# SK-MEL-2 = system: SK-MEL-2
# OVCAR-8 = system: OVCAR-8
# RPMI-8226 = system: RPMI-8226
# NCI/ADR-RES = system: NCI/ADR-RES
# SF-539 = system: SF-539
# SR = system: SR
# SN12C = system: SN12C
# HCT-15 = system: HCT-15
# SK-MEL-28 = system: SK-MEL-28
# SF-295 = system: SF-295
# SNB-75 = system: SNB-75
# A549 = system: A549
# DU-145 = system: DU-145
# UACC-257 = system: UACC-257
# NCI-H23 = system: NCI-H23
# HCT-116 = system: HCT-116
# MDA-MB-231 = system: MDA-MB-231
# ACHN = system: ACHN
# COLO 205 = system: COLO 205
# EKVX = system: EKVX
# OVCAR-3 = system: OVCAR-3
# SK-OV-3 = system: SK-OV-3
# HOP-92 = system: HOP-92
# PC-3 = system: PC-3
# SK-MEL-5 = system: SK-MEL-5
# TK-10 = system: TK-10
# OVCAR-5 = system: OVCAR-5
# CAKI-1 = system: CAKI-1
# Hs-578T = system: Hs-578T
# MCF7 = system: MCF7
# M14 = system: M14
# Malme-3M = system: Malme-3M
# HOP-62 = system: HOP-62
# HT-29 = system: HT-29
# 786-0 = system: 786-0
# NCI-H460 = system: NCI-H460
# LOX IMVI = system: LOX IMVI
# NCI-H522 = system: NCI-H522
# SW-620 = system: SW-620
# MDA-MB-435 = system: MDA-MB-435
# SF-268 = system: SF-268
# KM12 = system: KM12
# IGROV-1 = system: IGROV-1
# MOLT-4 = system: MOLT-4
# RXF 393 = system: RXF 393
# OVCAR-4 = system: OVCAR-4
# NCI-H226 = system: NCI-H226
# SNB-19 = system: SNB-19
# U-251 = system: U-251
structure (smiles),measurement,setting,value
COP(=O)(OC)C(O)/C=C(\Cl)c1ccc(Cl)cc1 (stereo not given),GI50,UACC-62,56 µM (inactive)
same,GI50,UO-31,71 µM (inactive)
same,GI50,K562,43.5 µM (inactive)
same,GI50,CCRF-CEM,21.1 µM (inactive)
same,GI50,HL-60,32.9 µM (inactive)
same,GI50,T47D,25.3 µM (inactive)
same,GI50,SK-MEL-2,> 100 µM (inactive)
same,GI50,OVCAR-8,23.9 µM (inactive)
same,GI50,RPMI-8226,25.6 µM (inactive)
same,GI50,NCI/ADR-RES,23.1 µM (inactive)
same,GI50,SF-539,> 100 µM (inactive)
same,GI50,SR,21.3 µM (inactive)
same,GI50,SN12C,40.7 µM (inactive)
same,GI50,HCT-15,25.9 µM
same,GI50,SK-MEL-28,> 100 µM (inactive)
same,GI50,SF-295,> 100 µM (inactive)
same,GI50,SNB-75,> 100 µM (inactive)
same,GI50,A549,> 100 µM (inactive)
same,GI50,DU-145,> 100 µM (inactive)
same,GI50,UACC-257,28.4 µM (inactive)
same,GI50,NCI-H23,21.2 µM (inactive)
same,GI50,HCT-116,18.4 µM (inactive)
same,GI50,MDA-MB-231,43.8 µM (inactive)
same,GI50,ACHN,85.1 µM (inactive)
same,GI50,COLO 205,> 100 µM (inactive)
same,GI50,EKVX,> 100 µM (inactive)
same,GI50,OVCAR-3,19.1 µM (inactive)
same,GI50,SK-OV-3,> 100 µM (inactive)
same,GI50,HOP-92,18.9 µM (inactive)
same,GI50,PC-3,31.6 µM (inactive)
same,GI50,SK-MEL-5,23.7 µM (inactive)
same,GI50,TK-10,> 100 µM (inactive)
same,GI50,OVCAR-5,> 100 µM (inactive)
same,GI50,CAKI-1,69.2 µM (inactive)
same,GI50,Hs-578T,> 100 µM (inactive)
same,GI50,MCF7,96.4 µM (inactive)
same,GI50,M14,62.1 µM (inactive)
same,GI50,Malme-3M,> 100 µM (inactive)
same,GI50,HOP-62,28.4 µM (inactive)
same,GI50,HT-29,> 100 µM (inactive)
same,GI50,786-0,19.2 µM (inactive)
same,GI50,NCI-H460,> 100 µM (inactive)
same,GI50,LOX IMVI,19.6 µM (inactive)
same,GI50,NCI-H522,49.1 µM (inactive)
same,GI50,SW-620,38.8 µM (inactive)
same,GI50,MDA-MB-435,40.7 µM (inactive)
same,GI50,SF-268,65.2 µM (inactive)
same,GI50,KM12,> 100 µM (inactive)
same,GI50,IGROV-1,> 100 µM (inactive)
same,GI50,MOLT-4,28.1 µM (inactive)
same,GI50,RXF 393,78.2 µM (inactive)
same,GI50,OVCAR-4,37.2 µM (inactive)
same,GI50,NCI-H226,> 100 µM (inactive)
same,GI50,SNB-19,75.5 µM (inactive)
same,GI50,U-251,53.2 µM (inactive)

# From ChEMBL document CHEMBL1201862, “PubChem BioAssay data set” (2004)
